Results from US12427144B2, “Compounds and methods for the targeted degradation of androgen receptor” (Arvinas Operations, Inc., priority 2019, dated 2025).

Target: T1, Androgen Receptor (AR) (Homo sapiens, UniProt P10275)
T1 construct: endogenous in cells; host or cells: VCaP
T1 sequence (P10275 1-920): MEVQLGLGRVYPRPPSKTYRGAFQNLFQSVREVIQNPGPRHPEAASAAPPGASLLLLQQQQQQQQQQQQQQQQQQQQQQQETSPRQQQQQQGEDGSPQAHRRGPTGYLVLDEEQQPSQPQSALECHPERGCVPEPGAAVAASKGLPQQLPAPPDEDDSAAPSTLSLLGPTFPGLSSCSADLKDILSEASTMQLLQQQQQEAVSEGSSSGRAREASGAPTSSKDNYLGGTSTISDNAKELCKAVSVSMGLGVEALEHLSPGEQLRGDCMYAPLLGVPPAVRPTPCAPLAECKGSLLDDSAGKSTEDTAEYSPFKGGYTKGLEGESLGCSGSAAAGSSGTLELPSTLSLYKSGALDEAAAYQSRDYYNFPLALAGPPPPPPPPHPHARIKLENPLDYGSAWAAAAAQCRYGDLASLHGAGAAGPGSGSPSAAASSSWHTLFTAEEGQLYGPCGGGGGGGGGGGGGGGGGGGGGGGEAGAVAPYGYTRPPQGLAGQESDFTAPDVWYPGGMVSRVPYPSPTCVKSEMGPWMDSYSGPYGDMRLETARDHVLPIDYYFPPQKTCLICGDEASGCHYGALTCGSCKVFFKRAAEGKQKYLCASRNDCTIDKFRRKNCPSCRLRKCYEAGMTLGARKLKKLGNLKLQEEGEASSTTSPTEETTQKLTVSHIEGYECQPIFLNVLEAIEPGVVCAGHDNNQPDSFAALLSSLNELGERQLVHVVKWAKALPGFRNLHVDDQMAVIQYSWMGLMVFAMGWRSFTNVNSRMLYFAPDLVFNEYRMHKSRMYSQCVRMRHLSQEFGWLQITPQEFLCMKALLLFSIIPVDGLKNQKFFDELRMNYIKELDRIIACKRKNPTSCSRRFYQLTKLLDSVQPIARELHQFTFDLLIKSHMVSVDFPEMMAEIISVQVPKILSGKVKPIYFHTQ
Assay: AR immunofluorescence staining, high content imager, VCaP cells
Format: cell-based
Conditions: for DC50: AR degradation by immunofluorescence; for Dmax: maximal AR degradation
Summary of the method: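 VCaP cells treated with compound, fixed in 4% PFA (8% 2× solution added directly for low-adherence lines), permeabilised with 0.1% Triton X-100 and blocked. Stained overnight at 4° C with anti-AR antibody, then FITC anti-rabbit secondary plus phalloidin and DAPI/Hoechst. Read by high-content imaging.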

Compound | DC50 | Dmax
COc1cc(C(=O)NC2CCC(=O)NC2=O)ccc1O[C@H]1C[C@H](N(CC2CCN(c3ccc(C(=O)N[C@H]4C(C)(C)[C@H](Oc5cc(C)c(C#N)c(C)c5)C4(C)C)cc3)CC2)C(C)C)C1 (stereo partly shown) [Compound 66, N-(2,6-dioxopiperidin-3-yl)-3-methoxy-4-[(1r,3r)-3-[(propan-2-yl)({[1-(4-{[(1r,3r)-3-(4-cyano-3,5-dimethylphenoxy)-2,2,4,4-tetramethylcyclobutyl]carbamoyl}phenyl)piperidin-4-yl]methyl})amino]cyclobutoxy]benzamide] | < 1 nM | 50 to 70%
Cc1cc(O[C@H]2C(C)(C)[C@H](NC(=O)c3ccc(N4CCC5(CC4)CN([C@H]4C[C@H](Oc6ccc(C(=O)NC7CCC(=O)NC7=O)cc6)C4)CCO5)cc3)C2(C)C)cc(C)c1C#N (stereo partly shown) [Compound 68, N-[(1r,3r)-3-(4-cyano-3,5-dimethylphenoxy)-2,2,4,4-tetramethylcyclobutyl]-4-{4-[(1r,3r)-3-{4-[(2,6-dioxopiperidin-3-yl)carbamoyl]phenoxy}cyclobutyl]-1-oxa-4,9-diazaspiro[5.5]undecan-9-yl}benzamide] | 1 to 10 nM | 50 to 70%
COc1cc(O[C@H]2C(C)(C)[C@H](NC(=O)c3ccc(N4CCC(CN5CCN(c6ccc(F)c(C(=O)N[C@H]7CCC(=O)NC7=O)c6)CC5)CC4)cc3)C2(C)C)ccc1C#N [Compound 69, N-[(3S)-2,6-dioxopiperidin-3-yl]-2-fluoro-5-(4-{[1-(4-{[(1r,3r)-3-(4-cyano-3-methoxyphenoxy)-2,2,4,4-tetramethylcyclobutyl]carbamoyl}phenyl)piperidin-4-yl]methyl}piperazin-1-yl)benzamide] | 10 to 100 nM | ≥ 70%
Cc1cc(O[C@H]2C(C)(C)[C@H](NC(=O)c3ccc(N4CCC(CN5CCOCCCCCOc6ccc(C(=O)NC7CCC(=O)NC7=O)cc6O[C@H]6C[C@H]5C6)CC4)cc3)C2(C)C)cc(C)c1C#N (stereo partly shown) [Compound 72, (1r,19r)-N-(2,6-dioxopiperidin-3-yl)-18-{[1-(4-{[(1r,3r)-3-(4-cyano-3,5-dimethylphenoxy)-2,2,4,4-tetramethylcyclobutyl]carbamoyl}phenyl)piperidin-4-yl]methyl}-2,9,15-trioxa-18-azatricyclo[17.1.1.0^3,8]henicosa-3(8),4,6-triene-5-carboxamide] | 1 to 10 nM | < 50%
Cc1cc(O[C@H]2C(C)(C)[C@H](NC(=O)c3ccc(N4CCC(O[C@H]5C[C@H](Oc6ccc(C(=O)N[C@H]7CCC(=O)NC7=O)c(F)c6)C5)CC4)cc3)C2(C)C)cc(C)c1C#N [Compound 73, N-[(1r,3r)-3-(4-cyano-3,5-dimethylphenoxy)-2,2,4,4-tetramethylcyclobutyl]-4-{4-[(1r,3r)-3-(4-{[(3S)-2,6-dioxopiperidin-3-yl]carbamoyl}-3-fluorophenoxy)cyclobutoxy]piperidin-1-yl}benzamide] | 1 to 10 nM | < 50%
Cc1cc(O[C@H]2C(C)(C)[C@H](NC(=O)c3ccc(N4CCO[C@@H](CN5CCN(c6ccc(C(=O)N[C@@H]7CCC(=O)NC7=O)c(F)c6)CC5)C4)cc3)C2(C)C)cc(C)c1C#N [Compound 75, N-[(3R)-2,6-dioxopiperidin-3-yl]-2-fluoro-4-(4-{[(2S)-4-(4-{[(1r,3r)-3-(4-cyano-3,5-dimethylphenoxy)-2,2,4,4-tetramethylcyclobutyl]carbamoyl}phenyl)morpholin-2-yl]methyl}piperazin-1-yl)benzamide] | 1 to 10 nM | < 50%
COc1cc(O[C@H]2C[C@H](N3CCOC4(CCN(c5ccc(C(=O)N[C@H]6C(C)(C)[C@H](Oc7cc(C)c(C#N)c(C)c7)C6(C)C)cc5)CC4)C3)C2)cc(C(=O)NC2CCC(=O)NC2=O)c1 (stereo partly shown) [Compound 76, N-(2,6-dioxopiperidin-3-yl)-3-methoxy-5-[(1r,3r)-3-[9-(4-{[(1r,3r)-3-(4-cyano-3,5-dimethylphenoxy)-2,2,4,4-tetramethylcyclobutyl]carbamoyl}phenyl)-1-oxa-4,9-diazaspiro[5.5]undecan-4-yl]cyclobutoxy]benzamide] | 1 to 10 nM | < 50%

The next lines start with the values.

DC50 | Dmax | Compound
< 1 nM | 50 to 70% | Cc1cc(O[C@H]2C(C)(C)[C@H](NC(=O)c3ccc(N4CCO[C@@H](CN(C(C)C)[C@H]5C[C@H](Oc6ccc(C(=O)N[C@H]7CCC(=O)NC7=O)c(F)c6)C5)C4)cc3)C2(C)C)cc(C)c1C#N [Compound 65, 4-[(2S)-2-{[(propan-2-yl)[(1r,3r)-3-(4-{[(3S)-2,6-2,2,4,4-dioxopiperidin-3-yl]carbamoyl}-3-fluorophenoxy)cyclobutyl]amino]methyl}morpholin-4-yl]-N-[(1r,3r)-3-(4-cyano-3,5-dimethylphenoxy)-2,2,4,4-tetramethylcyclobutyl]benzamide]
1 to 10 nM | ≥ 70% | COCCN(C[C@H]1CN(c2ccc(C(=O)N[C@H]3C(C)(C)[C@H](Oc4cc(C)c(C#N)c(C)c4)C3(C)C)cc2)CCO1)[C@H]1C[C@H](Oc2ccc(C(=O)N[C@H]3CCC(=O)NC3=O)c(F)c2)C1 [Compound 67, 4-[(2S)-2-{[(2-methoxyethyl)[(1r,3r)-3-(4-{[(3S)-2,6-dioxopiperidin-3-yl]carbamoyl}-3-fluorophenoxy)cyclobutyl]amino]methyl}morpholin-4-yl]-N-[(1r,3r)-3-(4-cyano-3,5-dimethylphenoxy)-2,2,4,4-tetramethylcyclobutyl]benzamide]
< 1 nM | 50 to 70% | Cc1cc(O[C@H]2C(C)(C)[C@H](NC(=O)c3ccc(N4CC(CN5CC(c6ccc(C(=O)N[C@H]7CCC(=O)NC7=O)c(F)c6)C5)C4)cc3)C2(C)C)cc(C)c1C#N [Compound 71, N-[(3S)-2,6-dioxopiperidin-3-yl]-2-fluoro-4-(1-{[1-(4-{[(1r,3r)-3-(4-cyano-3,5-dimethylphenoxy)-2,2,4,4-tetramethylcyclobutyl]carbamoyl}phenyl)azetidin-3-yl]methyl}azetidin-3-yl)benzamide]
< 1 nM | < 50% | Cc1cc(O[C@H]2C(C)(C)[C@H](NC(=O)c3ccc(N4CCC(CN5CCOCCCCOc6ccc(C(=O)NC7CCC(=O)NC7=O)cc6O[C@H]6C[C@H]5C6)CC4)cc3)C2(C)C)cc(C)c1C#N (stereo partly shown) [Compound 74, (1r,18r)-N-(2,6-dioxopiperidin-3-yl)-17-{[1-(4-{[(1r,3r)-3-(4-cyano-3,5-dimethylphenoxy)-2,2,4,4-tetramethylcyclobutyl]carbamoyl}phenyl)piperidin-4-yl]methyl}-2,9,14-trioxa-17-azatricyclo[16.1.1.0^3,8]icosa-3(8),4,6-triene-5-carboxamide]
